Data reported in patent US9358228B2, “Therapeutic combinations of netupitant and palonosetron” (Helsinn Healthcare SA, priority 2011, dated 2016).

Legend:
Format in all cases: in vivo, rat
SNL rats = test: Behavioural assessment of the neuropathic state: paw withdrawal to von Frey filaments and acetone; details: for Paw Withdrawal Frequency (PWD), 2 g vF Filament / Paw Withdrawal Frequency (PWD), 6 g vF Filament / Paw Withdrawal Frequency (PWD), Cooling Acetone: mean ± S.E.
Excerpt: A model of experimental neuropathic pain with symptoms of allodynia and hyperalgesia was established by tightly ligating the L5 and L6 spinal nerves as previously described (Kim and Chung, 1992). Within a sterile theatre, rats weighing approximately 130-150 g were anaesthetised (1:1 O2:N2O, 3% halothane for induction, 1% maintenance) and following a small left-side incision at approximately L4-S2, paraspinal muscle and fat was removed from spinous processes. Part of the L6 traverse process was clipped with rangeurs to expose the parallel-lying L4 and L5 spinal nerves. The L5 nerve was isolated and hooked with a finely-pulled glass rod and tightly tied with non-absorbable 6-0 silk thread distal to the dorsal root ganglion (and proximal to the formation of the sciatic nerve). The L6 nerve was then hooked from under the sacrum and tied in a similar way. Haemostasis was confirmed and the wound was sutured with 3-0 absorbable silk. The surrounding skin was pulled together and secured over the injury with wound clips. Rats recovered in an incubator, and once it had been confirmed that they had no observable motor impairment in their left hindpaw, were re-housed in cages as above. Sham surgery was performed in the same environment and under the same conditions except nerves were not hooked or ligated.
On post-operative days 2, 7, 9 and 14, behavioural signs of punctate mechanical and cooling hypersensitivity were assessed in the left ipsilateral hindpaw relative to the right contralateral hindpaw in awake and alert rats. Rats were individually placed in clear acrylic cubes on an elevated floor of wire mesh, and following a period of acclimation (30 minutes), mechanical sensitivities were determined by paw withdrawal to von Frey (vF) filaments with bending forces 2 g and 6 g (tested in consecutive, ascending force). Each filament was applied to the plantar surface of the paw for ˜2-3 s with enough force to cause buckling, and for each animal this was repeated 10 times at set positions on each paw. […] Cold hypersensitivity was assessed by applying a drop of acetone to each paw 5 times during each testing period, with each application separated by an interval of at least 5 minutes. Withdrawal frequency was quantified as =(number of foot withdrawals/10 or 5 trials as appropriate).

[1] = test system: spinal dorsal horn neurones in SNL rats; test: Electrophysiology: mechanical, heat and brush evoked dorsal horn neural responses; details: mean ± S.E.
Method: Electrophysiology experiments were conducted on post-operative days 14-17 in anaesthetised rats.
We recorded the evoked responses of dorsal horn lamina V-VI neurones to stimulation of the peripheral receptive field with: • a train of 16 electrical pulses at 3×C-fibre threshold • mechanical von Frey filaments of increasing force—vf 2 g, 8 g, 26 g and 60 g applied to the centre of the receptive field for 10 seconds • heat—40, 45 and 48° C. applied to the centre of the receptive field by a constant water jet for 10 seconds
Following 3 stable baseline responses, 0.03 mg/kg Palonosetron and 0.10 mg/kg Netupitant were administered into the scruff of the neck by subcutaneous injection. Drug effects were followed for two hours with tests carried out at 10, 30, 50, 70, 90 and 110 minutes post injection.

[2] = test system: acetic acid (AA)-induced colonic hypersensitivity in a rodent model; test: Colonic sensitivity assessment: visceromotor response to colorectal distension after acetic acid infusion; details: rats; for inhibition of AA-induced colonic hypersensitivity, agent alone: oral, effective dose not given (0.001-1 mg/kg dosed); for effect of 0.001 mg/kg dose alone on colonic and somatic sensitivity: 0.001 mg/kg p.o., agent alone
Method: Induction of Acute Visceral and Somatic Hypersensitivity: Visceral and somatic hypersensitivity were induced by infusing dilute (1.5 ml at 0.6%) acetic acid (AA) into the rat colon via a catheter (Intramedic PE 90 tubing) inserted via the anus to the level of the mid-colon. Within 60 mins colonic and somatic hypersensitivity was evident.
Colonic Sensitivity Assessment: Visceromotor responses (VMR) to colorectal distension (CRD) were measured by counting the number of abdominal contractions in response to increasing levels of CRD (0-60 mmHg). On the day of the colonic sensitivity assessment, a minor surgical procedure was performed to attach a strain gauge force transducer onto the abdominal oblique muscle and attached via an adapter cable to a Grass Model 7 Polygraph. The cable was connected to a Model 7P1 Low-Level DC Pre-Amp. The Pre-Amp was set at 0.02 mV/cm sensitivity and was connected to a Model 7DA DC Driver Amp with sensitivity set at […]. A 5 cm latex balloon was inserted into the distal colon. The balloon cannula was connected to a Distender Series IIR barostat (G & J Electronics Inc.) for controlled, isobaric inflation of the balloon and CRD using constant pressure (isobaric) tonic distensions were conducted at 0, 20, 40 and 60 mmHg. Each pressure was maintained for a period 10 min. during which time the number of abdominal muscle contractions were counted. A 10 min. recovery period was allowed between the each distension.
Test Compounds: Following surgery, rats were pre-dosed with Palonosetron (1-hr pre-dose), Netupitant (2-hr pre-dose) or methyl cellulose vehicle. Palonosetron and Netupitant were supplied by Helsinn Healthcare Inc. and were stored at 4° C. until prepared for dosing as a suspension in 1% methyl cellulose solution. The drug suspensions were prepared so that each rat received an oral dosing volume of 0.5 ml per 100 g body weight for doses of 0.001, 0.01, 0.1 or 1 mg/kg. Compounds were prepared fresh on the day of use.
Statistical Analysis: To determine statistical significance between multiple control and treatment groups, data was compared using one-way ANOVA followed by a Bonferroni post-test. Results were deemed significant when p-values were less than 0.05.

## Cl.O=C1c2cccc3c2[C@H](CCC3)CN1[C@@H]1CN2CCC1CC2 [Palo, (3aS)-2-[(S)-1-Azabicyclo[2.2.2]oct-3-yl]-2,3,3a,4,5,6-hexahydro-1-oxo-1Hberiz[de]isoquinoline]
SNL rats; FIG. 2, seen in the SNL rats only
  effect on the number of paw withdrawals to vF 2 g, vF 6 g and acetone: dose related reduction
SNL rats; SNL rats, Palo 0.03 mg/kg s.c.
  Paw Withdrawal Frequency (PWD), 2 g vF Filament: 2.8 ± 0.8
  Paw Withdrawal Frequency (PWD), 6 g vF Filament: 5.2 ± 1.5
  Paw Withdrawal Frequency (PWD), Cooling Acetone: 1.2 ± 0.4
SNL rats; SNL rats, Palo 0.3 mg/kg s.c.
  Paw Withdrawal Frequency (PWD), 2 g vF Filament: 3.1 ± 0.7
  Paw Withdrawal Frequency (PWD), 6 g vF Filament: 4.1 ± 1.3
  Paw Withdrawal Frequency (PWD), Cooling Acetone: 1.2 ± 0.5
SNL rats; SNL rats, Palo 3 mg/kg s.c.
  Paw Withdrawal Frequency (PWD), 2 g vF Filament: 1.4 ± 0.6
  Paw Withdrawal Frequency (PWD), 6 g vF Filament: 1.1 ± 0.4
  Paw Withdrawal Frequency (PWD), Cooling Acetone: 1.9 ± 0.3
[1]; Palo 0.03 mg/kg s.c.
  Brush-Evoked, Number of Action Potentials: 144 ± 59
  Heat-Evoked 40° Celsius, Number of Action Potentials: 136 ± 58
  Heat-Evoked 45° Celsius, Number of Action Potentials: 380 ± 187
  Heat-Evoked 48° Celsius, Number of Action Potentials: 816 ± 101
  Mechanically-Evoked 8 g vF Filament, Number of Action Potentials: 211 ± 42
  Mechanically-Evoked 26 g vF Filament, Number of Action Potentials: 539 ± 17
  Mechanically-Evoked 60 g vF Filament, Number of Action Potentials: 799 ± 192
[2]
  inhibition of AA-induced colonic hypersensitivity, agent alone: significantly inhibited
  effect of 0.001 mg/kg dose alone on colonic and somatic sensitivity: non-effective

## Cc1ccccc1-c1cc(N2CCN(C)CC2)ncc1N(C)C(=O)C(C)(C)c1cc(C(F)(F)F)cc(C(F)(F)F)c1 [Netu, 2-[3,5-bis(trifluoromethyl)phenyl]-N,2-dimethyl-N-[4-(2-methylphenyl)-6-(4-methylpiperazin-1-yl)pyridin-3-yl]propanamide]
SNL rats; FIG. 7, SNL rats, 1 mg/kg
  effect on behavioral hypersensitivities (withdrawal responses to vF2 g, vF6 g, acetone): appears to inhibit behavioral hypersensitivities
SNL rats; SNL rats, Netu 0.1 mg/kg s.c.
  Paw Withdrawal Frequency (PWD), 2 g vF Filament: 4.1 ± 1.0
  Paw Withdrawal Frequency (PWD), 6 g vF Filament: 6.7 ± 1.8
  Paw Withdrawal Frequency (PWD), Cooling Acetone: 1.9 ± 0.3
SNL rats; SNL rats, Netu 1 mg/kg s.c.
  Paw Withdrawal Frequency (PWD), 2 g vF Filament: 3.8 ± 1.2
  Paw Withdrawal Frequency (PWD), 6 g vF Filament: 6.2 ± 1.5
  Paw Withdrawal Frequency (PWD), Cooling Acetone: 2.7 ± 0.5
SNL rats; SNL rats, Netu 10 mg/kg s.c.
  Paw Withdrawal Frequency (PWD), 2 g vF Filament: 3.9 ± 1.1
  Paw Withdrawal Frequency (PWD), 6 g vF Filament: 5.9 ± 1.0
  Paw Withdrawal Frequency (PWD), Cooling Acetone: 2.0 ± 0.4
SNL rats; agent alone
  effect in animal models of allodynia/neuropathic pain, agent alone: zero or minimal effect
[1]; Netu 0.1 mg/kg s.c.
  Brush-Evoked, Number of Action Potentials: 310 ± 40
  Heat-Evoked 40° Celsius, Number of Action Potentials: 298 ± 72
  Heat-Evoked 45° Celsius, Number of Action Potentials: 381 ± 82
  Heat-Evoked 48° Celsius, Number of Action Potentials: 495 ± 186
  Mechanically-Evoked 8 g vF Filament, Number of Action Potentials: 190 ± 42
  Mechanically-Evoked 26 g vF Filament, Number of Action Potentials: 390 ± 56
  Mechanically-Evoked 60 g vF Filament, Number of Action Potentials: 486 ± 75
[2]
  inhibition of AA-induced colonic hypersensitivity, agent alone: significantly inhibited
  effect of 0.001 mg/kg dose alone on colonic and somatic sensitivity: non-effective
